Biological target: T1, recombinant human NAE enzyme (Homo sapiens, UniProt Q8TBC4)
T1 construct: His (N); made in house; host or cells: Sf9 insect cells (baculovirus, Bac-to-Bac)
T1 sequence (Q8TBC4 1-463): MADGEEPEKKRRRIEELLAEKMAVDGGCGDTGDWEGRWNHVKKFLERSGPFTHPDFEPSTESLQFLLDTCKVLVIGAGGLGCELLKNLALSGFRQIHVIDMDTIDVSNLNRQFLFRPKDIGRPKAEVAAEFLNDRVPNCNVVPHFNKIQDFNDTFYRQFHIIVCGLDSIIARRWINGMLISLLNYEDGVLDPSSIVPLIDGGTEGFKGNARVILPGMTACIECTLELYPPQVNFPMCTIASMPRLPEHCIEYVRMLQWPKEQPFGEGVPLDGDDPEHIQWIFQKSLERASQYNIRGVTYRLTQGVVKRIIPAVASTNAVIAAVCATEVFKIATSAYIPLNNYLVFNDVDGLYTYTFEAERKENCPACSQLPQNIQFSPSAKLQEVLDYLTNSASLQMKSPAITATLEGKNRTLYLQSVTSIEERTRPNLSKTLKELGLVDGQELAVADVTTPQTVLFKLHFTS
T1 sequence (Q13564 1-534 partner): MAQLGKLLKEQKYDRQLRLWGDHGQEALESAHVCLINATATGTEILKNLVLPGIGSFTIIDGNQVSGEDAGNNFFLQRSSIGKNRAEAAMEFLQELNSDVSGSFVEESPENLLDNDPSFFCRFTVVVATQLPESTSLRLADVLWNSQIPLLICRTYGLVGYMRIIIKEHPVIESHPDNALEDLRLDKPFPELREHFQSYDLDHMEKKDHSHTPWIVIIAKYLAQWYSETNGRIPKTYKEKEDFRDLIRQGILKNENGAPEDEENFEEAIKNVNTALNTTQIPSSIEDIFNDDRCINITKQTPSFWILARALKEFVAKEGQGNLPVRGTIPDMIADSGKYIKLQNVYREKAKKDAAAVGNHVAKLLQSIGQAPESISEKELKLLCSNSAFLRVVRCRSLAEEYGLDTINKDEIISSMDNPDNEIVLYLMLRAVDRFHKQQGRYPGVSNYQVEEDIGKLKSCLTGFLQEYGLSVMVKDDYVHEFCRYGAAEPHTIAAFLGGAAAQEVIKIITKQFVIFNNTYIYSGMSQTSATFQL
Assay: Nedd8-Activating Enzyme (NAE) HTRF Assay
Type: biochemical
Conditions: 20 μM ATP
Method: Following manufacturer instructions, baculoviruses were generated with the Bac-to-Bac Expression System (Invitrogen) for the following proteins: untagged NAEα (APPBP1; NP_003896.1), N-terminally His-tagged NAEJ (UBE1C; NP_003959.3), untagged SAEα (SAE1; NP_005491.1), N-terminally His-tagged SAE3 (UBA2; NP_005490.1), N-terminally His-tagged murine UAE (UBE1X; NP_033483). NAEα/His-NAEβ and SAEα/His-SAEβ complexes were generated by co-infection of Sf9 cells, which were harvested after 48 hours. His-mUAE was generated by single infection of Sf9 cells and harvested after 72 hours. Expressed proteins were purified by affinity chromatography (Ni-NTA agarose, Qiagen) using standard buffers. Nedd8-Activating Enzyme (NAE) HTRF Assay. The NAE enzymatic reaction totaled 50 μL and contained 50 mM HEPES (pH 7.5), 0.05% BSA, 5 mM MgCl2, 20 μM ATP, 250 μM GSH, 0.01 μM Ubc12-GST, 0.075 μM Nedd8-Flag and 0.20 nM recombinant human NAE enzyme. The enzymatic reaction mixture, with and without compound inhibitor, was incubated at room temperature 24° C. for 105 minutes in a 384-well plate before termination with 25 μL of Stop/Detection buffer (0.1M HEPES pH 7.5, 0.05% Tween20, 20 mM EDTA, 410 mM KF, 0.53 nM Europium-Cryptate labeled monoclonal anti-FLAG M2 antibody (CisBio International) and 8.125 μg/mL PHYCOLINK goat anti-GST allophycocyanin (XL-APC) antibody (Prozyme)). After incubation for 1 hour at 24° C., quantification of the FRET was performed on the Analyst™ HT 96.384 (Molecular Devices).

| Structure (SMILES) | IC50 (bound given in μM) [µM] | IC50 (bound given in nM) [µM] |
| --- | --- | --- |
| NS(=O)(=O)OC[C@H]1C[C@@H](NC(=O)c2ccccn2)[C@H](O)[C@@H]1O [Compound I-23, {(1R,2R,3S,4R)-2,3-dihydroxy-4-[(pyridin-2-ylcarbonyl)amino]cyclopentyl}-methyl sulfamate] | > 10 |  |
| NS(=O)(=O)OC[C@H]1C[C@@H](Nc2ncnc(N[C@H]3CCc4ccccc43)n2)[C@H](O)[C@@H]1O [Compound I-26, [(1R,2R,3S,4R)-4-({4-[(1S)-2,3-dihydro-1H-inden-1-ylamino]-1,3,5-triazin-2-yl}-amino)-2,3-dihydroxycyclopentyl]methyl sulfamate] |  | ≤ 0.5 |
| NS(=O)(=O)OC[C@H]1C[C@@H](NC(=O)c2ccncc2)[C@H](O)[C@@H]1O [Compound I-28, [(1R,2R,3S,4R)-2,3-dihydroxy-4-(isonicotinoylamino)cyclopentyl]methyl sulfamate] | < 10 | > 0.5 |
| NS(=O)(=O)OC[C@H]1C[C@@H](Nc2cc(N[C@H]3CCc4ccccc43)ncn2)[C@H](O)[C@@H]1O [Compound I-29, [(1R,2R,3S,4R)-4-({6-[(1S)-2,3-dihydro-1H-inden-1-ylamino]pyrimidin-4-yl}-amino)-2,3-dihydroxycyclopentyl]methyl sulfamate] |  | ≤ 0.5 |
| Cc1nc(NCc2ccccc2)cc(N[C@@H]2C[C@H](COS(N)(=O)=O)[C@@H](O)[C@H]2O)n1 [Compound I-30, ((1R,2R,3S,4R)-4-{[6-(benzylamino)-2-methylpyrimidin-4-yl]amino}-2,3-dihydroxycyclopentyl)methyl sulfamate] | > 10 |  |
| Cc1c(N[C@H]2CCc3ccccc32)ncnc1O[C@@H]1C[C@@H](COS(N)(=O)=O)[C@@H](O)C1 [Compound I-32, [(1S,2S,4R)-4-({6-[(1S)-2,3-dihydro-1H-inden-1-ylamino]-5-methylpyrimidin-4-yl}oxy)-2-hydroxycyclopentyl]methyl sulfamate] |  | ≤ 0.5 |
| NS(=O)(=O)OC[C@@H]1C[C@@H](Nc2ncnc3[nH]c(-c4ccccc4Cl)nc23)C[C@@H]1O [Compound I-34, ((1S,2S,4R)-4-{[8-(2-chlorophenyl)-9H-purin-6-yl]amino}-2-hydroxycyclopentyl)methyl sulfamate] |  | ≤ 0.5 |
| CC1(C)C[C@H](Nc2cc(O[C@@H]3C[C@@H](COS(N)(=O)=O)[C@@H](O)C3)ccn2)c2ccc(Cl)cc21 [Compound I-35, {(1S,2S,4R)-4-[(2-{[(1S)-5-chloro-3,3-dimethyl-2,3-dihydro-1H-inden-1-yl]-amino}-pyridin-4-yl)oxy]-2-hydroxycyclopentyl}methyl sulfamate] | < 10 | > 0.5 |
| Cn1c(-c2ccccc2)nc2ncnc(N[C@@H]3C[C@@H](COS(N)(=O)=O)[C@@H](O)C3)c21 [Compound I-36, {(1S,2S,4R)-2-hydroxy-4-[(7-methyl-8-phenyl-7H-purin-6-yl)-amino]cyclopentyl}methyl sulfamate] | < 10 | > 0.5 |
| NS(=O)(=O)OC[C@@H]1C[C@@H](Nc2ncnc3[nH]c(-c4ccccc4Oc4ccccc4)nc23)C[C@@H]1O [Compound I-37, ((1S,2S,4R)-2-hydroxy-4-{[8-(2-phenoxyphenyl)-9H-purin-6-yl]amino}-cyclopentyl)methyl sulfamate] |  | ≤ 0.5 |
| NS(=O)(=O)OC[C@@H]1C[C@@H](Nc2ncnc3[nH]c(-c4ccccc4)cc23)C[C@@H]1O [Compound I-38, {(1S,2S,4R)-2-hydroxy-4-[(6-phenyl-7H-pyrrolo[2,3-d]pyrimidin-4-yl)-amino]cyclopentyl}methyl sulfamate] |  | ≤ 0.5 |
| NS(=O)(=O)OC[C@@H]1C[C@@H](Nc2ncnc3[nH]c(-c4cccc5c4oc4ccccc45)nc23)C[C@@H]1O [Compound I-39, {(1S,2S,4R)-4-[(8-dibenzo[b,d]furan-4-yl-9H-purin-6-yl)amino]-2-hydroxycyclopentyl}methyl sulfamate] |  | ≤ 0.5 |
| NS(=O)(=O)OC[C@@H]1C[C@@H](Oc2cc(NCc3cccc4ccccc34)ncn2)C[C@@H]1O [Compound I-42, [(1S,2S,4R)-2-hydroxy-4-({6-[(1-naphthylmethyl)amino]pyrimidin-4-yl}-oxy)cyclopentyl]methyl sulfamate] |  | ≤ 0.5 |
| C[C@H]1Cc2ccccc2[C@H]1Nc1cc(O[C@@H]2C[C@@H](COS(N)(=O)=O)[C@@H](O)C2)ncn1 [Compound I-43, {(1S,2S,4R)-2-hydroxy-4-[(6-{[(1S,2S)-2-methyl-2,3-dihydro-1H-inden-1-yl]-amino}pyrimidin-4-yl)oxy]cyclopentyl}methyl sulfamate] |  | ≤ 0.5 |

Results, then the molecule that gave them:

| IC50 (bound given in μM) [µM] | IC50 (bound given in nM) [µM] | Structure (SMILES) |
| --- | --- | --- |
|  | ≤ 0.5 | NS(=O)(=O)OC[C@H]1C[C@@H](Nc2cc(N[C@H]3CCc4c(Cl)cccc43)ncn2)[C@H](O)[C@@H]1O [Compound I-24, {(1R,2R,3S,4R)-4-[(6-{[(1S)-4-chloro-2,3-dihydro-1H-inden-1-yl]amino}-pyrimidin-4-yl)-amino]-2,3-dihydroxycyclopentyl}methyl sulfamate] |
|  | ≤ 0.5 | NS(=O)(=O)OC[C@H]1C[C@@H](Nc2cc(N[C@H]3CCc4ccccc43)ncn2)C[C@@H]1O [Compound I-25, [(1R,2S,4R)-4-({6-[(1S)-2,3-dihydro-1H-inden-1-ylamino]pyrimidin-4-yl}amino)-2-hydroxycyclopentyl]methyl sulfamate] |
|  | ≤ 0.5 | NS(=O)(=O)OC[C@H]1C[C@@H](Nc2cc(NCc3ccccc3)ncn2)[C@H](O)[C@@H]1O [Compound I-27, ((1R,2R,3S,4R)-4-{[6-(benzylamino)pyrimidin-4-yl]amino}-2,3-dihydroxycyclopentyl)-methyl sulfamate] |
| > 10 |  | NS(=O)(=O)OC[C@@H]1C[C@@H](Oc2cc(N[C@H]3CCc4ccccc43)ncn2)C[C@@H]1O [Compound I-31, [(1S,2S,4R)-4-({6-[(1S)-2,3-Dihydro-1H-inden-1-ylamino]pyrimidin-4-yl}oxy)-2-hydroxycyclopentyl]methyl sulfamate] |
| < 10 | > 0.5 | NS(=O)(=O)OC[C@@H]1C[C@@H](Cc2cc(N[C@H]3CCc4ccccc43)ncn2)C[C@@H]1O [Compound I-33, [(1S,2S,4S)-4-({6-[(1S)-2,3-dihydro-1H-inden-1-ylamino]pyrimidin-4-yl}methyl)-2-hydroxycyclopentyl]methyl sulfamate] |
|  | ≤ 0.5 | NS(=O)(=O)OC[C@@H]1C[C@@H](Oc2cc(N[C@H]3CCCc4ccccc43)ncn2)C[C@@H]1O [Compound I-40, [(1S,2S,4R)-2-hydroxy-4-({6-[(1S)-1,2,3,4-tetrahydronaphthalen-1-ylamino]pyrimidin-4-yl}oxy)cyclopentyl]methyl sulfamate] |
|  | ≤ 0.5 | NS(=O)(=O)OC[C@@H]1C[C@@H](Nc2ncnc3[nH]c(-c4cccc5c4OCCO5)nc23)C[C@@H]1O [Compound I-41, ((1S,2S,4R)-4-{[8-(2,3-dihydro-1,4-benzodioxin-5-yl)-9H-purin-6-yl]amino}-2-hydroxycyclopentyl)methyl sulfamate] |
|  | ≤ 0.5 | Cc1nc(N[C@H]2CCc3ccccc32)nc(N[C@@H]2C[C@H](COS(N)(=O)=O)[C@@H](O)[C@H]2O)n1 [Compound I-45, [(1R,2R,3S,4R)-4-({4-[(1S)-2,3-dihydro-1H-inden-1-ylamino]-6-methyl-1,3,5-triazin-2-yl}amino)-2,3-dihydroxycyclopentyl]methyl sulfamate] |

Reference: US9718788B2, “Heteroaryl compounds useful as inhibitors of E1 activating enzymes” (MILLENNIUM PHARMACEUTICALS, INC., priority 2006, dated 2017)
